The values below come from patent US12262712B2, “Oxime ether compound and application thereof” (SHENYANG SINOCHEM AGROCHEMICALS R&D CO., LTD., priority 2019, dated 2025).

Assay [1] has as its system soft rot of Chinese cabbage. The assay can be described thus: Control effect on soft rot of Chinese cabbage (leaf piece, spray, needle wound inoculation). Type of assay: in vivo, soft rot bacteria of Chinese cabbage. To be noted: 400 mg/L, sprayed on leaf, 48 hours in the dark. The text has this: (§1) The compounds of the present invention are used to determine the control effect on various plant bacterial diseases. For different bacterial diseases, the test procedures are as follows:
Soft rot of Chinese cabbage: 2 cm of square Chinese cabbage leaf is cut and placed in a glass petri dish lined with double-layer filter paper. A compound dissolved in N,N dimethylformamide and diluted with water to a required concentration is sprayed onto the surface of the Chinese cabbage leaf. After the medicinal liquid on the surface of the Chinese cabbage leaf is dried in a fume hood, the surface of the Chinese cabbage leaf is acupunctured by using an inoculating needle to cause a wound. […] of soft rot bacteria of Chinese cabbage cultured to a stable growth period is added to the wound for inoculation. Finally, the test materials are placed in an incubator and cultured for 48 hours in the dark; and the control effect is investigated after full onset of diseases through control.

Assay [2] deals with melon bacterial fruit blotch. Nature of the assay: Control effect on melon bacterial fruit blotch (seed soak, greenhouse). The class given is in vivo. As to conditions: 400 mg/L, seeds soaked in bacteria plus compound solution. Here is the method:
as §1
Melon bacterial fruit blotch: the compound to be tested is dissolved with a small amount of N,N dimethylformamide and diluted with water to the required concentration. The pathogenic bacteria cultured to a stable growth stage is evenly mixed with a quantitative compound solution; the germinated melon seeds are soaked in the mixed solution of a bacteria solution and the compound for half an hour; then, the seeds are sown in an earthworm soil culture cup and put into a greenhouse for moisturizing cultivation for two weeks generally; and the control effect is investigated after full onset of diseases through control.

The subject of assay [3] is cucumber downy mildew. The assay can be described thus: In vivo pot determination, control effect on cucumber downy mildew. To be noted: 400 ppm, foliar spray, parallel comparison (Table 4). The method, then:
(§2) An in vivo pot determination method was adopted, i.e., a sample of the compound to be tested was dissolved with a small amount of solvent (the type of the solvent may be, for example, acetone, methanol and DMF, and selected according to the capability to dissolve the sample; the volume ratio of the amount of the solvent to the amount of sprayed solution is equal to or less than 0.05), diluted with water containing 0.1% Tween 80 and formulated into a required concentration of solution to be tested. Foliar spray treatment was carried out with the compounds of the present invention at the designed concentrations. A blank control with clear water spray was set and repeated for three times. Disease inoculation was carried out on the second day after the treatment. After inoculation, the plants were placed in a phytotron for moisturizing cultivation (temperature: 25° C. on day, 20° C. at night, relative humidity 95-99%). […] After the control was fully diseased (generally one week), the control effects of the compounds were evaluated. For the result survey, A Manual of Assessment Keys for Plant Diseases compiled by American Phytopathological Society can be referred to, which uses 100-0 for representation. “100” level represents no disease and “0” level represents the most severe disease degree.

The subject of assay [4] is soybean rust. The assay can be described thus: In vivo pot determination, control effect on soybean rust. As to conditions: foliar spray. Here is the method:
as §2

In assay [5] the test system is bacterial spot of cucumber (Pseudomonas syringae pv. lachrymans). The assay can be described thus: Field trial, control of bacterial spot of cucumber. To be noted: whole plant spray three times at 7 day interval, investigated 7 days after last delivery. Type of assay: in vivo. Here is the method:
Compounds 47 and 97 were selected from the above compounds for field trial to control bacterial spot of cucumber (Pseudomonas syringae pv. lachrymans). The treatment dose of the test drug was 400 mg/L, and the treatment dose of a control drug CK2 was 700 mg/L. The test drug and the control drug were arranged in random blocks; the plot area was 15 m^2; and repetition was conducted for 3 times. The drug delivery mode was the whole plant spray. Drug delivery was conducted for three times, with an interval of 7 days, and control effect investigation was carried out 7 days after the last drug delivery. During investigation, 5 points in each plot were sampled; all leaves were investigated; and disease indexes and control effects were calculated according to the percentage level of diseased spot area of each leaf in the whole leaf area.

The structures appear in SMILES notation.

Turning to `N#CC(C#N)=NOCc1csc(NC(=O)c2ccc(F)c(C(F)(F)F)c2)n1` [Compound 74], in assay [1], the “control effects on soft rot of Chinese cabbage” value (“control effects on soft rot” below) came to 100%. The “control effects on melon bacterial fruit blotch” value in assay [2] is 100%.
For the compound `CCC(=O)Nc1nc(CON=C(C#N)C#N)cs1` [Compound 118], in assay [1], the “control effects on soft rot” value turned out to be 100%. Moreover, the “control effects on melon bacterial fruit blotch” value in assay [2] came to 100%.
On to `CC(=NNc1nc(CON=C(C#N)C#N)cs1)c1ccc(F)cc1` [Compound 361], for which the “control effects on soft rot” value in assay [1] worked out at 100%. In addition, the “control effects on melon bacterial fruit blotch” value in assay [2] came out at 100%.
For the compound `CC(C)(C)OC(=O)Nc1nc(CON=C(C#N)C(N)=O)cs1` [Compound 253], the “control effects on soft rot” value in assay [1] turned out to be 100%. Also, the “control effects on melon bacterial fruit blotch” value in assay [2] is reported as 100%.
With `N#CC(C#N)=NOCc1csc(NC(=O)c2ccc(Cl)cc2Cl)n1` [Compound 34], in assay [1], the “control effects on soft rot” value is listed as 100%. Moreover, the “control effects on melon bacterial fruit blotch” value in assay [2] was determined as 100%.
In the case of `CC=CC(=O)Nc1nc(CON=C(C#N)C#N)cs1` [Compound 117], in assay [3], the “Control Effects on Cucumber Downy Mildew (%)” value is on record as 100%. Moreover, in assay [1], the “control effects on soft rot” value is 100%. Besides, in assay [2], the “control effects on melon bacterial fruit blotch” value worked out at 100%.
For `N#CC(C#N)=NOCc1csc(NC(=O)c2ccc(Br)cc2)n1` [Compound 10], the “Control Effects on Soybean Rust (%)” value in assay [4] (100 ppm) and in assay [4] (200 ppm) was 100% each time.
As to `N#CC(C#N)=NOCc1csc(NC(=O)c2ccc(F)cc2F)n1` [Compound 86], the “control effects on soft rot” value in assay [1] is listed as 100%. In addition, in assay [2], the “control effects on melon bacterial fruit blotch” value is 100%.
Consider `N#CC(C#N)=NOCc1csc(NC(=O)c2ccccc2C(F)(F)F)n1` [Compound 20], for which, in assay [3], the “Control Effects on Cucumber Downy Mildew (%)” value came to 100%. Besides, the “control effects on soft rot” value in assay [1] was found to be 100%. Further, the “control effects on melon bacterial fruit blotch” value in assay [2] is 100%.
On to `N#CC(C#N)=NOCc1csc(NC(=O)c2ccc3c(c2)OC(F)(F)O3)n1` [Compound 366], for which the “control effects on soft rot” value in assay [1] amounted to 100%. The “control effects on melon bacterial fruit blotch” value in assay [2] is recorded as 100%.
For the compound `N#CC(C#N)=NOCc1csc(NC(=O)c2ccc(F)c(F)c2)n1` [Compound 87], the “control effects on soft rot” value in assay [1] stood at 100%. Also, in assay [2], the “control effects on melon bacterial fruit blotch” value is 100%.
For the compound `N#CC(C#N)=NOCc1csc(NC(=O)c2ccccc2OC(F)(F)F)n1` [Compound 23], the “Control Effects on Soybean Rust (%)” value in assay [4] (100 ppm) and in assay [4] (200 ppm) was 100% each time. Moreover, the “control effects on soft rot” value in assay [1] turned out to be 100%. Besides, in assay [2], the “control effects on melon bacterial fruit blotch” value was 100%.
With `Cc1ccc(S(=O)(=O)Nc2nc(CON=C(C#N)C(N)=O)cs2)cc1` [Compound 228], the “control effects on soft rot” value in assay [1] is 100%. Also, the “control effects on melon bacterial fruit blotch” value in assay [2] is 100%.
`N#CC(=NOCc1csc(NC(=O)c2ccccc2Cl)n1)C(N)=O` [Compound 134]: the “control effects on soft rot” value in assay [1] worked out at 100%. For the same compound, the “control effects on melon bacterial fruit blotch” value in assay [2] came to 100%.
On to `N#CC(C#N)=NOCc1csc(NC(=O)c2ccccc2)n1` [Compound 95], for which the “control effects on soft rot” value in assay [1] is on record as 100%. In addition, in assay [2], the “control effects on melon bacterial fruit blotch” value came out at 100%.
As to `N#CC(C#N)=NOCc1csc(NN=C(c2ccc(Cl)cc2)c2ccc(Cl)cc2)n1` [Compound 367], the “control effects on soft rot” value in assay [1] came out at 100%. The “control effects on melon bacterial fruit blotch” value in assay [2] was 100%.
As for `N#CC(C#N)=NOCc1csc(N)n1` [Compound 47, ((2-aminothiazole-4-yl)methoxy)iminoimide dicyanide], the figures for the “Control Effects on Soybean Rust (%)” value in assay [4] (100 ppm) and in assay [4] (200 ppm) were 85% and 100%, respectively. Further, the “control effects on soft rot” value in assay [1] was 100%. The “Control Effect (%)” value in assay [5] (active ingredient dose 400 mg/L) is 77.00%. Besides, the “control effects on melon bacterial fruit blotch” value in assay [2] amounted to 100%.
Take `CCc1ccc(C(=O)Nc2nc(CON=C(C#N)C#N)cs2)cc1` [Compound 365]: the “Control Effects on Soybean Rust (%)” value in assay [4] (100 ppm) and in assay [4] (200 ppm) was 100% in each case.
Regarding `N#CC(C#N)=NOCc1csc(NC(=O)c2ccc(Cl)c(Cl)c2)n1` [Compound 36], the “control effects on soft rot” value in assay [1] came to 100%. Moreover, in assay [2], the “control effects on melon bacterial fruit blotch” value was found to be 100%.
With `N#CC(=NOCc1csc(N)n1)C(N)=O` [Compound 179], the “Control Effects on Soybean Rust (%)” value in assay [4] (100 ppm) is given as 80%; in assay [4] (200 ppm), 100%. Also, the “control effects on soft rot” value in assay [1] turned out to be 100%. Further, the “control effects on melon bacterial fruit blotch” value in assay [2] is 100%.
Regarding `CC(C)(C)OC(=O)Nc1nc(CON=C(C#N)C#N)cs1` [Compound 123], in assay [1], the “control effects on soft rot” value was determined as 100%. Besides, the “control effects on melon bacterial fruit blotch” value in assay [2] worked out at 100%.
As for `N#CC(C#N)=NOCc1csc(NC(=O)c2ccc(Cl)cc2)n1` [Compound 4], the “control effects on soft rot” value in assay [1] turned out to be 100%. For the same compound, the “control effects on melon bacterial fruit blotch” value in assay [2] is reported as 100%.
Take `N#CC(C#N)=NOCc1csc(NC(=O)c2cccc(F)c2)n1` [Compound 6]: the “control effects on soft rot” value in assay [1] turned out to be 100%. Moreover, the “control effects on melon bacterial fruit blotch” value in assay [2] is listed as 100%.
With `N#CC(C#N)=NOCc1csc(-c2ccccc2)n1` [CK2, reference compound], the “Control Effects on Cucumber Downy Mildew (%)” value in assay [3] stood at 0%. Moreover, the “Control Effect (%)” value in assay [5] (active ingredient dose 700 mg/L) was 76.89%.
In the case of `N#CC(C#N)=NOCc1csc(NC(=O)C(F)(F)F)n1` [Compound 119], in assay [1], the “control effects on soft rot” value stood at 100%. For the same compound, in assay [2], the “control effects on melon bacterial fruit blotch” value came out at 100%.
`N#CC(C#N)=NOCc1cnc(Cl)s1` [CK1, reference compound]: the “Control Effects on Cucumber Downy Mildew (%)” value in assay [3] worked out at 0%. Also, the “Control Effects on Soybean Rust (%)” value in assay [4] (100 ppm) and in assay [4] (200 ppm) was 0% in each case.
For `N#CC(C#N)=NOCc1csc(NC(=O)c2ccccc2F)n1` [Compound 5], the “control effects on soft rot” value in assay [1] is 100%. The “control effects on melon bacterial fruit blotch” value in assay [2] is given as 100%.
For `N#CC(C#N)=NOCc1csc(NC(=O)c2ccc(C(F)(F)F)cc2)n1` [Compound 22], the “control effects on soft rot” value in assay [1] is 100%. In addition, the “control effects on melon bacterial fruit blotch” value in assay [2] is recorded as 100%.
For the compound `N#CC(C#N)=NOCc1csc(NC(=O)c2cccnc2)n1` [Compound 65], the “control effects on soft rot” value in assay [1] was found to be 100%. Also, in assay [2], the “control effects on melon bacterial fruit blotch” value is reported as 100%.
In the case of `N#CC(C#N)=NOCc1csc(NC(=O)c2ccc([N+](=O)[O-])c(F)c2)n1` [Compound 45], in assay [3], the “Control Effects on Cucumber Downy Mildew (%)” value is listed as 100%. The “control effects on soft rot” value in assay [1] was 100%. Besides, the “control effects on melon bacterial fruit blotch” value in assay [2] is 100%.
Take `N#CC(C#N)=NOCc1csc(-c2ccc(Cl)cc2)n1` [CK3, reference compound]: the “Control Effects on Cucumber Downy Mildew (%)” value in assay [3] worked out at 0%.
